Data taken from patent publication US20080317700A1 (priority 2006, published 2008).
Read-outs that look alike come from different tables or passages of the source. Marks after values point to notes of the source that are not given here.

Key:
[1] = tested on: green algae CD 1 Red; experiment: organism not typed; format: cell-based
Protocol: (§1) After phototrophical propagation during the 5 days under cool fluorescence light (intensity 5000 lux), the average radii of inhibition zones were measured. Water soaked filter paper circles were used as controls. Experiments for each herbicide concentration were repeated 3 times.

[2] = tested on: E. Coli; experiment: E. Coli agar experiments (colony count); format: cell-based; conditions: M9 agar, 1 mM herbicide, 37° C., 24 hours; controls 36 colonies
Protocol: A M9 minimum medium containing 1.5 wt. % agar was prepared and sterilized at 121° C., 1.05 kg cm^−2 for 20 min. An aliquot of each tested herbicide solution was added to portions of the autoclaved agar to give a 1 mM final concentration of the herbicide. Twenty mL of the liquid agar was poured into a standard Petri dish and allowed to harden at room temperature. E. Coli cell suspensions were inoculated using a sterile inoculation loop and stored at 37° C. for 24 hours. Control and treated cultures were grown under the same conditions. In each experiment, the inhibition of growth in treated cultures was monitored relative to growth in control samples by manually counting the number of colonies.

[3] = tested on: cyanobacteria Synechococcus 7002; experiment: microbe, parasite or virus in culture; format: cell-based
Protocol: as §1

[4] = Solubility (qualitative); format: physicochemical
[5] = tested on: green algae CD 1 Red; experiment: Liquid culture growth inhibition (optical density), green algae; format: cell-based; conditions: CD1 Red, BG-11 liquid medium, 1 mM herbicide, control 0.55
Protocol: (§2) Strains of green algae, cyanobacteria and E. Coli were used as test organisms. The green algae CD 1 Red and cyanobacteria Synechocystos 6803 were obtained from the collection of Prof. George Bullerjahn. Salt water strain of cyanobacteria Synechococcus 7002 was obtained from the collection of Prof. Michael McKay. E Coli DH 5α was obtained from Invitrogen Inc.
(§3) Green algae and cyanobacteria were propagated photoautotrophically in 250 mL Erlenmeyer flasks containing 100 mL of liquid BG-11 culture medium (see Supporting Information). The cultures were kept on a rotating shaker (100 rpm) at 25° C. for 4 days and continuously illuminated with cool-white fluorescent light with a constant light intensity of 5000 lux. The grown culture medium was sterilized in an autoclave at 121° C. and 1.05 kg cm^−2 pressure for 20 min. For the cell experiments, 20 mL aliquots of the BG-11 medium containing the green algal ([cells]initial=5.9×10^7 mL^−1) or cyanobacteria cells ([cells]initial=1.7×10^9 mL^−1) were placed in sterile 50 mL Erlenmeyer flasks. […] Cell counts were correlated with the absorbance and measured as a function of time using a Spectronic 20 Genesis spectrophotometer. […] In each experiment, the inhibition of cell growth in treated cultures was monitored spectrophotometrically and compared to the growth in control samples.

[6] = tested on: cyanobacteria Synechocystos 6803; experiment: Liquid culture growth inhibition (optical density), fresh water cyanobacteria; format: cell-based; conditions: Synechocystos 6803, BG-11 liquid medium, 1 mM herbicide, control 1.4
Protocol: as §2, §3

[7] = tested on: E Coli DH 5α; experiment: Liquid culture growth inhibition (optical density), E. Coli; format: cell-based; conditions: for Optical Density at 680 nm, measurements taken after 24 hours of growth: E. Coli, M9 minimum medium, 30 mM herbicide, control 1.30; for Toxicity towards E. Coli (liquid culture): inhibition only during first 10 hours, beyond 24 hours optical density matched controls
Protocol: as §2
E. Coli was propagated heterotrophically in a 2 mL Eppendorf test-tube containing 1.5 mL of liquid M9 minimum medium (see Supporting Information) and kept on a rotating shaker (100 rpm) at 37° C. for 12 hours. The grown culture medium was sterilized at 121° C., 1.05 kg cm^−2 for 20 min. For the cell experiments, 100 mL aliquots of the M9 medium containing the E. Coli cells ([cells]initial=6×10^5 mL^−1) were distributed into sterile 250 mL Erlenmeyer flasks and treated with a stock herbicide solution to obtain a final concentration of 30 mM, followed by an incubation for 24 h on a rotating shaker (100 rpm) at 37° C. […] Control and treated cultures were grown under the same conditions of temperature and shaking. In each experiment, the inhibition of growth in treated cultures was monitored spectrophotometrically and compared to the growth in control samples.

[8] = tested on: natural freshwater biofouling organisms (periphyton); experiment: Field trial: periphyton biofouling on coated tiles in artificial stream (chlorophyll extraction); conditions: for Extracted chl (periphyton chl biomass) per tile: 459S2 coating with 0.15 M herbicide on ceramic tiles, 10 days in flow channels, bare tiles 11.1±2.87, blank resin 9.35±1.07
Protocol: Field tests were conducted during July and August, 2006 at the University of Michigan Biological Station Experimental Stream Laboratory located near Douglas Lake, Pellston, Mich. Resin 459S2 containing 0.15 M of a designated herbicide was coated on terracotta ceramic tiles (3×6 inches) pretreated with silanes for improved adhesion and photocured by an H-bulb system obtained from Fusion Inc. The coating thickness was 12.5 μm (0.5 mil). Bare tiles and tiles coated with 459S2 containing no additive were used as controls. Nine tiles for each series were placed into separate flow channels with a constant water flow of 3 L min^−1 for each channel. Each flow channel utilized water pumped from the East Branch of the Maple River containing natural freshwater biofouling organisms. Each flow channel was covered with a mesh screen to reduce direct light exposure and to ensure more favorable growth conditions. Tiles were left in the flow channels for 10 days.
Chlorophyll (chl) biomass attached to the surface of each tile was determined after the tiles had been washed three times with tap water to remove mud and other loosely attached species. The coated surface of the tile was submerged into a plastic vessel containing 25 mL of 90/10 acetone/saturated aqueous MgCl2. The container itself was placed into an ultrasonic bath and the entire system was sonicated for 30 seconds to facilitate chl extraction. The UV-vis spectrum of each extract was measured on a Shimadzu diode-array spectrophotometer using a 1 cm quartz cell. The amount of chl was determined using the following equation:^29
where Aλ1-λ2 is the difference in absorbance at two designated wavelengths and l is the spectroscopic cell pathlength. Two independent field trials were conducted.

[9] = CD1 Red, herbicide concentration 0.3 mM, 5 days
[10] = CD1 Red, herbicide concentration 3 mM, 5 days
[11] = Syn. 7002, herbicide concentration 0.3 mM, 5 days
[12] = Synechococcus, 120 h, read-out: Average radii of the inhibition zones

| SMILES | Average radii of the inhibition zones [1, 9] | Average radii of the inhibition zones [1, 10] | Number of E. Coli colonies [2] [colonies] | Average radii of the inhibition zones [3, 11] | Solubility in organic solvents [4] | Optical Density at 680 nm after 7 days of media growth [5] | Optical Density at 680 nm after 7 days of media growth [6] | Optical Density at 680 nm, measurements taken after 24 hours of growth [7] | Toxicity towards E. Coli (liquid culture) [7] | Extracted chl (periphyton chl biomass) per tile [8] [μg tile^−1] | also measured |
| --- | --- | --- | --- | --- | --- | --- | --- | --- | --- | --- | --- |
| O=C(O)CNCP(=O)(O)O [Glyphosate, N-(Phosphonomethyl)glycine, reference compound] | No | No | 11 | No | poor solubility in organic solvents | 0.02 | 0.58 | 1.20^c | do not display reasonable toxicity | 11.9±2.56 | zone of inhibition at 30000 µM ([1]; 120 h, CD1 Red, herbicide concentration 30 mM, 5 days, read-out: Average radii of the inhibition zones): 7.5 mm; Average radii of the inhibition zones ([1]; CD1 Red, herbicide concentration 300 mM, 5 days): Complete; Average radii of the inhibition zones ([3]; Syn. 7002, herbicide concentration 300 mM, 5 days): Complete; zone of inhibition at 3000 µM ([3]; Synechococcus, 120 h, Syn. 7002, herbicide concentration 3 mM, 5 days, read-out: Average radii of the inhibition zones): 6 mm; zone of inhibition at 30000 µM ([3]; Synechococcus, 120 h, Syn. 7002, herbicide concentration 30 mM, 5 days, read-out: Average radii of the inhibition zones): 8 mm |
| C=CC(=O)N(CC(=O)O)CP(=O)(O)O [AA, N-Acryloyl-N-(phosphonomethyl)glycine] | No | No | 6 | No | poorly soluble in most organic solvents | 0.02 | 0.54 | 1.24^c | do not display reasonable toxicity | 7.92±1.12 | zone of inhibition at 300000 µM ([1]; 120 h, read-out: Average radii of the inhibition zones): 10 mm; Average radii of the inhibition zones ([1]; CD1 Red, herbicide concentration 30 mM, 5 days): No; Average radii of the inhibition zones ([3]; Syn. 7002, herbicide concentration 3 mM, 5 days): No; zone of inhibition at 30000 µM [3, 12]: 6.5 mm; zone of inhibition at 300000 µM [3, 12]: 15 mm; Solubility in water [4]: soluble in water; Periphyton chl relative to tiles containing unfunctionalized glyphosate ([8]; 459S2 coating with 0.15 M herbicide, 10 days, unpaired two-tailed t-test, P<0.05): roughly one-third |
